Test results: the NIST ThermoML archive (doi:10.1021/je900660x)
± gives the expanded uncertainty stated by the source.

Assays:
[1] = for mass density / viscosity / thermal conductivity: 101.33 kPa, Liquid; for mass density: Vibrating tube method; for thermal conductivity: Hot wire method
[2] = molar heat capacity at constant pressure; conditions: 101.33 kPa, Liquid, Large sample (1 g) DSC

SMILES	viscosity ([1]; 313.15 K)	mass density ([1]; 313.15 K)	viscosity ([1]; 323.15 K)	mass density ([1]; 323.15 K)	viscosity ([1]; 333.15 K)	mass density ([1]; 333.15 K)	viscosity ([1]; 343.15 K)	mass density ([1]; 343.15 K)	viscosity ([1]; 353.15 K)	mass density ([1]; 353.15 K)	viscosity ([1]; 363.15 K)	mass density ([1]; 363.15 K)	Glass transition temperature ([1]; DTA)	molar heat capacity at constant pressure ([2]; 293.15 K)	molar heat capacity at constant pressure ([2]; 298.15 K)	molar heat capacity at constant pressure ([2]; 303.15 K)	molar heat capacity at constant pressure ([2]; 313.15 K)	molar heat capacity at constant pressure ([2]; 323.15 K)	molar heat capacity at constant pressure ([2]; 333.15 K)	molar heat capacity at constant pressure ([2]; 343.15 K)	also measured
CCCC[P+](CCCC)(CCCC)CCCC.N[C@@H](CO)C(=O)[O-] [tetrabutylphosphonium L-serinate]	395.4 ± 56 mPa·s	983 ± 5.2 kg/m3	209.4 ± 21 mPa·s	976.9 ± 5.2 kg/m3	122.9 ± 8.2 mPa·s	970.8 ± 5.1 kg/m3	77.6 ± 3.1 mPa·s	964.8 ± 5 kg/m3	49.7 ± 1.5 mPa·s	958.9 ± 5 kg/m3	34.1 ± 1 mPa·s	953 ± 4.9 kg/m3	-59.38 ± 4 °C	742 ± 75 J/K/mol	748.5 ± 76 J/K/mol	755.1 ± 76 J/K/mol	765.6 ± 77 J/K/mol	776.5 ± 78 J/K/mol	787.4 ± 80 J/K/mol	797.6 ± 81 J/K/mol	mass density ([1]; 293.15 K): 995.5 ± 5.3 kg/m3; viscosity ([1]; 298.15 K): 1143 ± 240 mPa·s; mass density ([1]; 298.15 K): 992.3 ± 5.3 kg/m3; viscosity ([1]; 303.15 K): 778.4 ± 150 mPa·s; mass density ([1]; 303.15 K): 989.2 ± 5.3 kg/m3; molar heat capacity at constant pressure ([2]; 353.15 K): 807.8 ± 82 J/K/mol; molar heat capacity at constant pressure ([2]; 363.15 K): 814.7 ± 82 J/K/mol
CCCC[P+](CCCC)(CCCC)CCCC.C[C@@H](O)[C@H](N)C(=O)[O-] [tetrabutylphosphonium L-threoninate]	260.1 ± 30 mPa·s	970.7 ± 5.1 kg/m3	143.2 ± 11 mPa·s	964.6 ± 5 kg/m3	88.5 ± 4.1 mPa·s	958.5 ± 5 kg/m3	53.9 ± 1.4 mPa·s	952.5 ± 4.9 kg/m3	36.2 ± 1.1 mPa·s	946.6 ± 4.9 kg/m3	25.1 ± 0.8 mPa·s	940.7 ± 4.8 kg/m3	-60.72 ± 4 °C	952.2 ± 96 J/K/mol	961.3 ± 97 J/K/mol	970.7 ± 98 J/K/mol	991.5 ± 100 J/K/mol	1012.6 ± 100 J/K/mol	1033.4 ± 100 J/K/mol	1055.7 ± 110 J/K/mol	mass density ([1]; 293.15 K): 983 ± 5.2 kg/m3; viscosity ([1]; 298.15 K): 739 ± 140 mPa·s; thermal conductivity ([1]; 298.15 K): 0.156 ± 0.01 W/m/K; mass density ([1]; 298.15 K): 979.9 ± 5.2 kg/m3; viscosity ([1]; 303.15 K): 519.8 ± 83 mPa·s; thermal conductivity ([1]; 303.15 K): 0.155 ± 0.01 W/m/K; mass density ([1]; 303.15 K): 976.9 ± 5.2 kg/m3; thermal conductivity ([1]; 313.15 K): 0.154 ± 0.01 W/m/K; thermal conductivity ([1]; 323.15 K): 0.153 ± 0.01 W/m/K; thermal conductivity ([1]; 333.15 K): 0.152 ± 0.01 W/m/K; thermal conductivity ([1]; 343.15 K): 0.152 ± 0.01 W/m/K; thermal conductivity ([1]; 353.15 K): 0.151 ± 0.01 W/m/K; molar heat capacity at constant pressure ([2]; 353.15 K): 1076.4 ± 110 J/K/mol; molar heat capacity at constant pressure ([2]; 363.15 K): 1097.2 ± 110 J/K/mol
CC(C)[C@H](N)C(=O)[O-].CCCC[P+](CCCC)(CCCC)CCCC [tetrabutylphosphonium L-valinate]	216.9 ± 22 mPa·s	932.1 ± 4.7 kg/m3	120 ± 7.8 mPa·s	926 ± 4.7 kg/m3	70.8 ± 2.5 mPa·s	919.9 ± 4.6 kg/m3	44.8 ± 1.3 mPa·s	913.9 ± 4.5 kg/m3	29.6 ± 0.9 mPa·s	908 ± 4.5 kg/m3	20.3 ± 0.6 mPa·s	902.1 ± 4.4 kg/m3	-65.56 ± 4 °C	743.7 ± 75 J/K/mol	747.4 ± 76 J/K/mol	751.6 ± 76 J/K/mol	761.3 ± 77 J/K/mol	771.5 ± 78 J/K/mol	781.2 ± 79 J/K/mol	791.4 ± 80 J/K/mol	thermal conductivity ([1]; 313.15 K): 0.157 ± 0.01 W/m/K; thermal conductivity ([1]; 323.15 K): 0.156 ± 0.01 W/m/K; thermal conductivity ([1]; 333.15 K): 0.155 ± 0.01 W/m/K; thermal conductivity ([1]; 343.15 K): 0.154 ± 0.01 W/m/K; thermal conductivity ([1]; 353.15 K): 0.153 ± 0.01 W/m/K; Normal melting temperature ([1]; Crystal, DTA): 25.77 ± 0.5 °C; molar heat capacity at constant pressure ([2]; 353.15 K): 801.1 ± 81 J/K/mol; molar heat capacity at constant pressure ([2]; 363.15 K): 810.9 ± 82 J/K/mol
